Results reported in patent US11162077B2, “Apicidin-containing composition for inducing differentiation of mesenchymal stem cells into cardiac-committed cells” (CHONNAM NATIONAL UNIVERSITY HOSPITAL, priority 2015, dated 2021).

System: human bone marrow-derived MSCs
Experiment: Real-time PCR of cardiac-specific marker genes after MSCs are treated with HDAC inhibitors
Type: cell-based
Conditions: 24 hours, TSA 0.5 μM, VPA 3 mM, AC 1 and 3 μM, vs vehicle, FIG. 1
Protocol: First, MSCs prepared in Example 1 were cultured for one day in a 6-well culture plate containing HIGH glucose/DMEM (4 mM L-glutamine, 4500 mg/L glucose, sodium pyruvate, 10% FBS, 100 U/ml penicillin, 100 μg/ml streptomycin), and then treated with TSA (0.5 μM), VPA (3 mM), and AC (1 and 3 μM) for 24 hours.
Afterward, the cell culture medium was removed from each sample, washed with PBS once, and homogenized with TRIzol for 10 minutes at room temperature, followed by centrifugation after the addition of chloroform. A supernatant obtained by centrifugation was harvested to purify total RNA, and cDNA was synthesized using a reverse transcriptase (MMLV) to be used as a template, followed by real-time PCR performed using the QuantiTect SYBR Green PCR kit. Accordingly, expression levels of the cardiac-specific marker genes (GATA4, Nkx2.5 and cTnI) were confirmed.

Structure (SMILES)	mRNA expression of GATA4	mRNA expression of cTnI	mRNA expression of Nkx2.5
CCCC(CCC)C(=O)O [VPA, valproic acid]	promoted	promoted	
CC(/C=C/C(=O)NO)=C\[C@@H](C)C(=O)c1ccc(N(C)C)cc1 [TSA, trichostatin A]	no specific effect	had significance	no specific effect
